Our source for the IC50 values is PubChem BioAssay AID540269 (Sanford-Burnham Center for Chemical Genomics, 2011).

Activity calls are given as the source filed them. No rule for the calls is given here.

The assay addresses glucose-6-phosphate dehydrogenase-6-phosphogluconolactonase (Plasmodium falciparum 3D7). Description: PfG6PD enzyme inhibitors, kinetic NADPH readout, dose response, orthogonal assay, biochemical, kinetic NADPH detection (AID 540269). Conditions: purified PfG6PD-6PGL.

With `O=C(Nc1nc(-c2ccncc2)cs1)C1COc2ccccc2O1` (stereo unspecified), the IC50 (as a rule, the concentration needed to halve the response being measured) was 22.4 µM.

`O=C1C=CC(=O)N1c1ccc2c(c1)C(NC(=O)C(F)(F)F)c1ccccc1-2` (stereo unspecified): the IC50 was > 80 µM (inactive).

With `CN(C)c1ccc(C=c2c3ccccc3n3c2c2ccccc2[n+]3C)cc1`, the IC50 is 32.8 µM.

In the case of `O=c1c2ccccc2[se]n1-c1ccccc1`, the IC50 was 22.1 µM.

Regarding `O=C1Nc2cc(C(=O)NCCCN3CCCC3)ccc2S/C1=C\c1ccccc1`, the 50% inhibitory concentration (IC50) is 22.3 µM.

On to `CCOC(=O)c1sc(NC(=O)CSc2nnc(Cc3ccccc3)o2)c(C#N)c1C`, for which the IC50 was > 80 µM (inactive).

In the case of `CN1CCc2cccc3c2[C@H]1Cc1ccc(O)c(O)c1-3`, the IC50 was > 80 µM (inactive).

In the case of `Cc1ccc2nc(SCC(=O)NC3CCCc4ccccc43)[nH]c2c1` (stereo unspecified), the IC50 is > 80 µM (inactive).

Consider `Cc1cc(O)c(C(C)C)cc1N=Cc1ccc([N+](=O)[O-])cc1`, for which the IC50 was > 80 µM (inactive).

Turning to `Cc1ccc(N2CC(C(=O)OCC(=O)c3ccc([N+](=O)[O-])cc3)CC2=O)cc1` (stereo unspecified), the IC50 is > 80 µM (inactive).

Turning to `NNC(=O)CN1C(c2ccccc2Br)=Nc2ccc(Br)cc2C1c1ccccc1` (stereo unspecified), the IC50 was 57.2 µM.

`O=C(CNC(=O)c1cccs1)OCC(=O)c1ccc([N+](=O)[O-])cc1`: the IC50 was > 80 µM (inactive).

Regarding `CCn1c(SCC(=O)Nc2ccccc2OC)nnc1-c1cnccn1`, the IC50 is > 80 µM (inactive).

`C=CCOc1ccc(CNc2ccc3[nH]c(=O)[nH]c3c2)cc1OC`: the IC50 was > 80 µM (inactive).

With `Cc1ccc(/C=C/C(=O)Nc2ccc([N+](=O)[O-])c(NC(=O)/C=C/c3ccc(C)o3)c2)o1`, the IC50 is > 80 µM (inactive).

On to `COc1cc(NCCCn2ccc(NC(=O)OCc3ccccc3)nc2=O)cc(OC)c1OC`, for which the IC50 is > 80 µM (inactive).

Turning to `C=CCSc1nc2sc3c(c2c(=O)n1CC)CCc1ccccc1-3`, the IC50 is > 80 µM (inactive).

For the molecule `Cc1ccc(-n2sc3cc(F)ccc3c2=O)c(C)c1`, the IC50 is 12.5 µM.

`Cc1cc(O)c(-c2cc(O)c(C)cc2O)cc1O`: the IC50 is 44.5 µM.

For `Cc1ccc(-c2c(C(=O)N/N=C/c3ccc(C)o3)nnn2-c2nonc2N)cc1`, the IC50 was 51.3 µM.

As for `COc1ccc(N2CSC3=C(C#N)C(c4cc(OC)c(OC)cc4OC)CC(=O)N3C2)c(OC)c1` (stereo unspecified), the IC50 is > 80 µM (inactive).

Regarding `CCOc1ccc(CNc2ccc(N3CCCC3)cc2)cc1`, the IC50 was > 80 µM (inactive).

For `Brc1cc2[nH]cnc2c2ccccc12`, the IC50 was > 80 µM (inactive).

As for `COc1cc(CNc2ccc(N3CCCC3)cc2)ccc1OCc1ccccc1F`, the IC50 was > 80 µM (inactive).

As for `COc1cc(/C=C2\CC/C(=C\c3cc(OC)c(O)c(OC)c3)C2=O)cc(OC)c1O`, the IC50 is > 80 µM (inactive).

As to `Oc1cc(-n2cccn2)c(O)cc1-n1cccn1`, the IC50 was 68.8 µM.

For the molecule `Cc1cc(O)c(C(C)C)cc1N=Cc1ccc(N(C)C)cc1`, the IC50 is > 80 µM (inactive).

Regarding `COc1c2ccoc2c(OCC=C(C)C)c2oc(=O)ccc12`, the IC50 is > 80 µM (inactive).

On to `Clc1nssc1=Nc1nncs1`, for which the IC50 is 33.4 µM.

As for `COc1cc(OC)c(C2CC(=O)N3CN(c4ccccc4)CSC3=C2C#N)cc1OC` (stereo unspecified), the IC50 is > 80 µM (inactive).

`COC(=O)CCC(=O)OC1(C)C(=O)C2=CN(c3ccccc3)C(c3ccc(OC)cc3)=CC2=C(Br)C1=O` (stereo unspecified): the IC50 was > 80 µM (inactive).

Regarding `COc1cc(N=c2ssnc2Cl)cc(OC)c1`, the IC50 was > 80 µM (inactive).

Take `Cc1cccc(C(=O)Nc2nnc(S(=O)(=O)N3CCOCC3)s2)c1`: the half-maximal inhibitory concentration (IC50) is 59.4 µM.

`O=C1NC(=S)NC(=O)C1=Cc1ccc(Br)s1`: the IC50 was > 80 µM (inactive).

Take `COC(=O)C1=C(C(=O)OC)SC2(S1)C(C(=O)OC)=C(C(=O)OC)Sc1c2ssc1=O`: the IC50 was > 80 µM (inactive).

With `COc1ccc(CN(C)S(=O)(=O)c2nnc(NC(=O)c3ccc(C)cc3)s2)cc1OC`, the IC50 is 29.9 µM.

In the case of `O=C1CCN(c2ccccc2)N1`, the IC50 was > 80 µM (inactive).

As to `Cc1ccc(/C=C/C(=O)NC2CCCCCCC2)o1`, the IC50 is > 80 µM (inactive).

In the case of `CCc1ccccc1N1CSC2=C(C#N)C(c3ccccc3F)CC(=O)N2C1` (stereo unspecified), the IC50 is > 80 µM (inactive).

Consider `Cn1c(=O)c2c([nH]c(=S)n2CCCc2ccccc2)n(C)c1=O`, for which the IC50 was 72.8 µM.

In the case of `Clc1cccc(Cl)c1CNc1ccc(N2CCCC2)cc1`, the IC50 is 60 µM.

Take `O=C1C(c2cc(=O)c3ccccc3[nH]2)=C(O)c2ccccc21`: the IC50 was > 80 µM (inactive).

As for `Cc1cc(C)nc(SSc2nc(C)cc(C)n2)n1`, the concentration for half-maximal inhibition (IC50) is 68 µM.

In the case of `CCN(CC)c1ccc(C(=C2C=CC(=[N+](CC)CC)C=C2)c2ccccc2)cc1`, the IC50 was > 80 µM (inactive).

On to `O=S(=O)(NCc1csc(-c2ccccc2)n1)c1ccc(Cl)s1`, for which the IC50 is > 80 µM (inactive).

Turning to `COc1ccc(CCn2c(NN=C3CCCC3)nc3c2c(=O)[nH]c(=O)n3C)cc1`, the IC50 is > 80 µM (inactive).

Consider `Clc1ccc(N=c2ssnc2Cl)nc1`, for which the IC50 is > 80 µM (inactive).

`OCCN1CCN(C(=S)c2ccc(-c3ccccc3)cc2)CC1`: the IC50 is > 80 µM (inactive).

Take `CN(C)c1ccc(C=c2c3cc(O)ccc3n3c2cc(-c2ccccc2)[n+]3C)cc1`: the IC50 was > 80 µM (inactive).

Turning to `O=C(Cn1sc2ccccc2c1=O)Nc1ccc(F)cc1`, the IC50 was 13.8 µM.

Regarding `COC(=O)c1cc2c(n1S(=O)(=O)c1ccc(C)cc1)C(=O)C(=O)c1[nH]cc(C(=O)OCc3ccccc3)c1-2`, the IC50 was > 80 µM (inactive).

Take `O=C1OC(c2ccc3ccccc3c2O)(c2ccc3ccccc3c2O)c2ccccc21`: the IC50 is > 80 µM (inactive).

Consider `CCN(CC)CCn1c2ccccc2c(=O)c2c(O)ccc(O)c21`, for which the IC50 was 33.1 µM.

Regarding `COc1ccc(C(=O)c2c(C(F)(F)F)oc3c2C(=O)c2ccccc2C3=O)cc1OC`, the IC50 is > 80 µM (inactive).

As to `COc1cc(NCc2ccccc2O)c2ncccc2c1`, the IC50 is 35 µM.

As to `O=C(OCC(=O)c1ccc([N+](=O)[O-])cc1)/C(=C\c1ccc(Cl)cc1)NC(=O)c1ccccc1`, the IC50 was > 80 µM (inactive).

Turning to `CC(=O)Nc1ccc2c(=O)n(-c3ccccc3)sc2c1`, the IC50 was 15.6 µM.

Take `COc1cc(NCCCn2cnc(C(=O)Nc3ccc(C)c(C)c3)n2)cc(OC)c1OC`: the IC50 is > 80 µM (inactive).

Regarding `CC1=C(O)C(=O)C=C2C1=CC=C1C2(C)CCC2(C)C3CC(C)(C(=O)O)CCC3(C)CCC12C` (stereo unspecified), the IC50 is 45.7 µM.

`CCCNC(=O)Cn1sc2nc(C)cc(C)c2c1=O`: the IC50 is 51.1 µM.

`Cc1c(Cl)c([N+](=O)[O-])nn1Cc1ccc(C(=O)N/N=C\c2cccc(Br)c2)o1`: the IC50 was > 80 µM (inactive).

For the molecule `COc1cc(SSc2cc(OC)cc([N+](=O)[O-])c2N)c(N)c([N+](=O)[O-])c1`, the IC50 is 44.6 µM.

For the molecule `CC(=NNC(=S)N1CCN(c2ccccn2)CC1)c1nccs1`, the IC50 is > 80 µM (inactive).

For `Cc1[nH]c2ccccc2c1/C=N/NC(=O)c1cccc(S(=O)(=O)Nc2ccccc2Cl)c1`, the IC50 was 59.3 µM.

Take `COc1cccc(-c2c(C(=O)N/N=C/c3ccc(C)o3)nnn2-c2nonc2N)c1`: the IC50 was 12.7 µM.

With `Nc1c(C(=O)Nc2ccc(F)cc2)sc(=S)n1-c1ccccc1F`, the IC50 was > 80 µM (inactive).

For `COc1ccccc1N1C(=O)C=C(Sc2nc(C)cc(C)n2)C1=O`, the IC50 was > 80 µM (inactive).

Regarding `Cc1ccc(S(=O)(=O)NNc2ccccc2)cc1`, the IC50 is 54.1 µM.

On to `COc1cc(NCc2ccccc2)c2ncn(C(C)C)c2c1`, for which the IC50 was > 80 µM (inactive).

As for `COc1ccc(OCc2nnc3n2N=C(c2ccccc2)C(CC(=O)O)S3)cc1` (stereo unspecified), the IC50 is > 80 µM (inactive).

Turning to `CCCN1CCc2cc(O)cc3c2[C@H]1Cc1ccc(O)c(O)c1-3`, the IC50 was > 80 µM (inactive).

Regarding `CCN1CCCC1CNC(=O)c1ccc2c(c1)NC(=O)/C(=C\c1ccccc1Cl)S2` (stereo unspecified), the IC50 is 8.01 µM.

Regarding `COc1ccc(/C=C/c2nc3ccccc3n2C)cc1`, the IC50 is 17.7 µM.

Take `CC1CCc2[nH]c3ccc(C(=O)N(C)CC(=O)Nc4ccccc4C(F)(F)F)cc3c2C1` (stereo unspecified): the IC50 is > 80 µM (inactive).

As to `Cc1ccc(NC(=O)c2cc(N3C(=O)C=CC3=O)ccc2N2CCOCC2)cc1Cl`, the IC50 is > 80 µM (inactive).

Consider `N#Cc1ccc(Oc2cccc3cccnc23)c([N+](=O)[O-])c1`, for which the IC50 was > 80 µM (inactive).

Regarding `O=C(CCC(=O)Nc1ccccc1Cl)N/N=C/c1ccccc1`, the IC50 is > 80 µM (inactive).

As to `Cc1cnc(C=NNC(N)=S)c2cccc(N)c12`, the IC50 is > 80 µM (inactive).

Regarding `COc1ccc(Nc2cc(C)c3c(O)cccc3n2)cc1`, the IC50 was > 80 µM (inactive).

`C[C@]12CC[C@@H]3c4ccc(O)c(O)c4CC[C@H]3[C@@H]1CC[C@@H]2O`: the IC50 is 41.3 µM.

Consider `Cc1no[n+]([O-])c1COc1cccc(/C=N/Nc2nncn2N)c1`, for which the concentration for half-maximal inhibition (IC50) is 30.5 µM.

Turning to `CCOC(=O)c1ccc(/[N+]([O-])=C/c2ccccc2)cc1`, the IC50 was > 80 µM (inactive).

Consider `CCc1nnc(NC(=O)c2ccc(Cl)nc2)s1`, for which the IC50 was > 80 µM (inactive).

With `N#CC1=C(N)Oc2c(O)cc3ccccc3c2C1c1ccsc1` (stereo unspecified), the IC50 is 55.6 µM.

Turning to `O=C(COC(=O)c1cnccn1)c1ccc([N+](=O)[O-])cc1`, the IC50 is > 80 µM (inactive).

For `CS(=O)(=O)c1ccc(N)c(SSc2cc(S(C)(=O)=O)ccc2N)c1`, the IC50 was 15.2 µM.

Take `O=C1NC(=O)N(c2ccccc2)C(=O)/C1=C/c1ccc([N+](=O)[O-])s1`: the IC50 was > 80 µM (inactive).

Take `Cc1ccc(S(=O)(=O)/N=C2/C=C(C3C(=O)CC(C)(C)CC3=O)C(=O)c3ccccc32)cc1`: the IC50 is > 80 µM (inactive).

Regarding `CCCCCCCCn1sccc1=O`, the IC50 was 66.4 µM.

In the case of `COc1cccc(CNc2ccc3[nH]c(=O)[nH]c3c2)c1OCc1ccc(F)cc1`, the IC50 was > 80 µM (inactive).

As to `Nn1c(SCC(=O)Nc2cccnc2Cl)nnc1-c1ccccc1`, the IC50 was > 80 µM (inactive).
